Test results taken from ChEMBL document CHEMBL3875146, “Mycobacterium Tuberculosis (MTB) GyrB inhibitors: An attractive approach for developing novel drugs against TB” (Eur J Med Chem, 2016).
In brackets after ≈: the same amount, converted by molar mass.

How the values were obtained:
[1] = biological target: T1, DNA gyrase subunit A/DNA gyrase subunit B (Mycobacterium tuberculosis (strain ATCC 25618 / H37Rv), UniProt P9WG45+P9WG47); assay: Inhibition of Mycobacterium tuberculosis DNA gyrase assessed as inhibition of DNA supercoiling activity using relaxed pBR322 as substrate incubated for 30 mins in presence of ATP by ethidium bromide staining based agarose gel electrophoresis
[2] = biological target: DNA gyrase subunit B (Mycobacterium smegmatis) (UniProt P0C559); assay: Inhibition of Mycobacterium smegmatis DNA gyrase-B ATPase activity after 30 mins by ammonium molybdate/malachite green-based phosphate detection assay; details: Mycolicibacterium smegmatis
[3] = test system: Mycobacterium tuberculosis; assay: Antimycobacterial activity against Mycobacterium tuberculosis measured after 5 days by microplate alamar blue assay; type: functional; details: 120 h
[4] = test system: Mycobacterium tuberculosis; assay: Antimycobacterial activity against Mycobacterium tuberculosis; type: functional
[5] = test system: Mycobacterium tuberculosis; assay: Inhibition of Mycobacterium tuberculosis topoisomerase-1 using DNA as substrate preincubated for 15 mins followed by substrate addition measured after 30 mins by ethidium-bromide based agarose gel electrophoresis
[6] = Inhibition of Escherichia coli DNA gyrase assessed as inhibition of DNA supercoiling activity using relaxed pBR322 as substrate incubated for 30 mins in presence of ATP by ethidium bromide staining based agarose gel electrophoresis
[7] = Inhibition of Staphylococcus aureus WCUH29 DNA gyrase expressed in Escherichia coli Rosetta 2 (DE3) pLysS cells assessed as inhibition of DNA supercoiling activity using relaxed pBR322 as substrate incubated for 30 mins in presence of ATP by ethidium bromide staining based agarose gel electrophoresis
[8] = biological target: DNA gyrase subunit B (Mycobacterium smegmatis, UniProt P0C559); assay: Inhibition of Mycobacterium smegmatis DNA gyrase B expressed in BL21(DE3)pLysS cells assessed as inhibition of […] activity in presence of ATP measured after 30 mins by malachite green dye based assay; type: cell-based, Mycolicibacterium smegmatis
[9] = Cytotoxicity against mouse RAW264.7 cells assessed as inhibition of cell viability at 100 uM measured after 72 hrs by MTT assay relative to control; type: toxicity; details: read-out: INH
[10] = biological target: T1, DNA gyrase subunit A/DNA gyrase subunit B; assay: (§1) Inhibition of Mycobacterium tuberculosis DNA gyrase assessed as inhibition of DNA supercoiling activity using relaxed pBR322 as substrate incubated for 30 mins by ethidium bromide staining based agarose gel electrophoresis
[11] = biological target: DNA gyrase subunit A/DNA gyrase subunit B (Mycobacterium tuberculosis (strain ATCC 25618 / H37Rv)) (UniProt P9WG45+P9WG47); assay: as §1
[12] = test system: Escherichia coli; assay: Antimicrobial activity against Escherichia coli; type: functional

T1 sequence (P9WG45 whole entry): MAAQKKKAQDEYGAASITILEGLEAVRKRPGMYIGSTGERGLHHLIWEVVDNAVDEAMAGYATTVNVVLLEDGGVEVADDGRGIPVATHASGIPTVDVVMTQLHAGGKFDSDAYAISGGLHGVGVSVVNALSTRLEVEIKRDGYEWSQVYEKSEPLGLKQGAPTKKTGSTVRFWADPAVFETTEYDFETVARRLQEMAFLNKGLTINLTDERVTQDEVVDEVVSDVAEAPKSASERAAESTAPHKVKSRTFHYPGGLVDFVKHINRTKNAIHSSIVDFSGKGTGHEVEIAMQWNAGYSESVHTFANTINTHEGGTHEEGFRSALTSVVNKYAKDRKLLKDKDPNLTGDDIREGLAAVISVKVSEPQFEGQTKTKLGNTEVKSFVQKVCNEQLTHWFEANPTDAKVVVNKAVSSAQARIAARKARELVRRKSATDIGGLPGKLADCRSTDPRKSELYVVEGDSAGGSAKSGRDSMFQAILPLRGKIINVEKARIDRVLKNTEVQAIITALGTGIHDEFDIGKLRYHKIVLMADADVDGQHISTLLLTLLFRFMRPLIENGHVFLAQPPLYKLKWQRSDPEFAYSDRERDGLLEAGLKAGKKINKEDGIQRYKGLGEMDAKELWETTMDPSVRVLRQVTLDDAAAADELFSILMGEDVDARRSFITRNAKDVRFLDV
T1 sequence (P9WG47 whole entry): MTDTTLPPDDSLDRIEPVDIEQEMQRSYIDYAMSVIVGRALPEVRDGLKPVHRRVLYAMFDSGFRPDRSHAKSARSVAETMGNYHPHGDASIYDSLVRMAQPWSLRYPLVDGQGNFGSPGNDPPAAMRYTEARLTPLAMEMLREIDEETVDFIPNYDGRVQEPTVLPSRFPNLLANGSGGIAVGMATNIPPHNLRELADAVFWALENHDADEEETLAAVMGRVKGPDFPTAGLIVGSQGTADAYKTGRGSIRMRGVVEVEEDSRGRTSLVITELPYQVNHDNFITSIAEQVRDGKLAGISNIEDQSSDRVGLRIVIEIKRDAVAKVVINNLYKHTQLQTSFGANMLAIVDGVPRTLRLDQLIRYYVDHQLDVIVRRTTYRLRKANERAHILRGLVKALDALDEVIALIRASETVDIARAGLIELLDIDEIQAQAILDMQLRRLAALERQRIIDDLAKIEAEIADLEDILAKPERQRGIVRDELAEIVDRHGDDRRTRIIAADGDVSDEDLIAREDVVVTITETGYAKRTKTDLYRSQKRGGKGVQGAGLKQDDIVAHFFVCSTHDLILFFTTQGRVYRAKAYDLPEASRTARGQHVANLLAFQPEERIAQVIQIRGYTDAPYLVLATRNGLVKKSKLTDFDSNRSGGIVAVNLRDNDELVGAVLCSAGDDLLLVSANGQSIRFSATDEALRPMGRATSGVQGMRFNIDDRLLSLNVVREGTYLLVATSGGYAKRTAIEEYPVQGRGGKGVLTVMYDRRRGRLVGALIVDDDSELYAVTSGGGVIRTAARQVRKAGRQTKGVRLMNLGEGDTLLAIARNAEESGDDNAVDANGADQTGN
DNA gyrase subunit B, sequence (P0C559 whole entry): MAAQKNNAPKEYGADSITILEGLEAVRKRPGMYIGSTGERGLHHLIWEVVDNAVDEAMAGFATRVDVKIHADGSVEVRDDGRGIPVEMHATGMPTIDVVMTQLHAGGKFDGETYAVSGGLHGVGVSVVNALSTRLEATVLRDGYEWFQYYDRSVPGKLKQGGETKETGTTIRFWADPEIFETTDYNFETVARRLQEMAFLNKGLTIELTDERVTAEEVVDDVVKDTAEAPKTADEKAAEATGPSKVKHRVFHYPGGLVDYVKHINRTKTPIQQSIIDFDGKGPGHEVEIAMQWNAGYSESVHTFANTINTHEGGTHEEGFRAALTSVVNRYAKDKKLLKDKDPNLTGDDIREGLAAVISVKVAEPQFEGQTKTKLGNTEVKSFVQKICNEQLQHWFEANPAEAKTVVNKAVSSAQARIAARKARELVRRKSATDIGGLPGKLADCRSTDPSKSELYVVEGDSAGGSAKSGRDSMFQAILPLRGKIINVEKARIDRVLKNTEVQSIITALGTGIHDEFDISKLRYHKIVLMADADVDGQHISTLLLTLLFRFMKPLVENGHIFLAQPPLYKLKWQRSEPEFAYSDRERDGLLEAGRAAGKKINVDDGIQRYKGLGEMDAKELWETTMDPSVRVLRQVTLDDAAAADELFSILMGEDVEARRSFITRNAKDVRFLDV
DNA gyrase subunit B (Mycobacterium smegmatis), sequence (P0C559 2-675 limits assumed): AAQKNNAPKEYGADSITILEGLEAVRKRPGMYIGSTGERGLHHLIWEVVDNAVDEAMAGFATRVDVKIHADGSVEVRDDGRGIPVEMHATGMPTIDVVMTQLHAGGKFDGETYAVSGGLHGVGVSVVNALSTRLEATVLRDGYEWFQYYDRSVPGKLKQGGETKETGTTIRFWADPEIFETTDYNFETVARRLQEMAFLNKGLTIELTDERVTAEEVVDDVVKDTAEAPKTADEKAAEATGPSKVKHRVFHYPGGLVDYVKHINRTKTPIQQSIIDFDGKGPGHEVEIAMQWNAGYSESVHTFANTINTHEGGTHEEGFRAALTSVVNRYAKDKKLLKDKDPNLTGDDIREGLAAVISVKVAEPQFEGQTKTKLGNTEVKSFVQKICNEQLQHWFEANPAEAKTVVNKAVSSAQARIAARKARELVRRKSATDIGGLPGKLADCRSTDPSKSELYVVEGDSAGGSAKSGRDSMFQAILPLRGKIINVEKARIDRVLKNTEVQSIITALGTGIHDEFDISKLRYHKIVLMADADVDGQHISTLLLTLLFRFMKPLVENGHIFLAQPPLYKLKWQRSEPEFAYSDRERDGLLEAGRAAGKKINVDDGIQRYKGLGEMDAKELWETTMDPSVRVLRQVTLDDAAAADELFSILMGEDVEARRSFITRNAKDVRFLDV

| SMILES | IC50 [8] | cytotoxicity at 72 h, 100 µM [9] | IC50 [10] | also measured |
| --- | --- | --- | --- | --- |
| Cc1cc(O)c2c(c1)C(=O)C=C(c1c(C)cc(O)c3c1C(=O)C=CC3=O)C2=O [NEODIOSPYRIN] |  |  |  | IC50 [1]: 50 µM |
| CCNC(=O)Nc1nc2cc(-c3cncnc3)c(OCC3CCOCC3)nc2s1 |  |  |  | INH [2]: 2.5 nM; MIC [3]: 60 µg/mL (≈ 145 µM) |
| CC1=CC(=O)c2ccccc2C1=O [MENADIONE] |  |  |  | IC50 [1]: > 200 µM |
| O=C1CSc2ccc(CNC3CCN(CC4CCN5C(=O)C=CC6N=CC(=O)N4C65)CC3)nc2N1 (centres undefined) |  |  |  | MIC [4]: 300 to 2000 µg/mL (≈ 605 to 4040 µM) |
| Cc1cc2c(c(O)c1-c1c(C)cc(O)c3c1C(=O)C=CC3=O)C(=O)C=CC2=O |  |  |  | IC50 [1]: 100 µM |
| Brc1c2ccccc2c(Br)c2nc(-c3ccco3)c(-c3ccco3)nc12 |  |  |  | INH [5]: 0.1 µM |
| c1ccc(N2CCC(Cc3nc4cc5ccccc5cc4nc3CN3CCN(c4ccccn4)CC3)CC2)nc1 |  |  |  | INH [5]: 7.5 µM |
| Cc1cc(O)c2c(c1)C(=O)C=CC2=O [RAMENTACEONE] |  |  |  | IC50 [6]: 30 µM; IC50 [1]: 30 µM; IC50 [7]: 60 µM |
| O=C1C(=O)N(CCN2CCN(NCc3ccccc3OCc3ccccc3)CC2)c2ccccc21 | 26.6 µM | 13.9% | 10 µM |  |
| O=C1COc2ccc(CNC3CCN(CCn4c(=O)ccc5cc(F)ccc54)CC3)nc2N1 |  |  |  | MIC [4]: 300 to 2000 µg/mL (≈ 664 to 4430 µM) |
| O=C1C(=O)N(CCN2CCN(NCc3cccc(Cl)c3Cl)CC2)c2ccc(Cl)cc21 | 43.2 µM | 17.4% | 25.6 µM |  |
| O=C1C(=O)N(CCN2CCN(NCc3cccc(Cl)c3Cl)CC2)c2ccccc21 | 21.7 µM | 16.8% | 4.8 µM |  |
| O=C1C(=O)N(CCN2CCN(NCc3ccccc3F)CC2)c2ccc(F)cc21 | 20.3 µM | 22.1% | 4.2 µM |  |
| Cc1ccc(-c2cnc3cc(-c4ccc5[nH]ccc5c4)cnc3n2)cc1 |  |  |  | INH [5]: 0.1 µM |
| Cc1ccc2c(c1)C(=O)C(=O)N2CCN1CCN(NCc2ccc(Cl)cc2Cl)CC1 | 79 µM | 25.3% | 48.9 µM |  |
| O=C1C(=O)N(CCN2CCN(NCc3ccc([N+](=O)[O-])o3)CC2)c2ccccc21 | 20.2 µM | 30.6% | 4.6 µM |  |
| Cn1ccc2cc(-c3cnc4nc(-c5ccccc5)cnc4c3)ccc21 |  |  |  | INH [5]: 0.1 µM |

| SMILES | IC50 [8] | cytotoxicity at 72 h, 100 µM [9] | IC50 [10] | also measured |
| --- | --- | --- | --- | --- |
| Fc1ccc(/N=N/c2cnc3cc4ccccc4cc3n2)cc1 |  |  |  | INH [11]: 50 µM |
| O=C1C(=O)N(CCN2CCN(NCc3ccccc3C(F)(F)F)CC2)c2ccc(Cl)cc21 | 22.1 µM | 16.4% | 4.9 µM |  |
| Clc1ccc(/N=N/c2cnc3cc4ccccc4cc3n2)cc1 |  |  |  | INH [11]: 12 µM |
| Cc1ccc2c(c1)C(=O)C(=O)N2CCN1CCN(NCc2ccccc2OCc2ccccc2)CC1 | 28.3 µM | 34.6% | 10 µM |  |
| COc1ccc2ncc(=O)n(-c3cnc4c(c3)CCC(NCc3ccc5c(n3)NC(=O)CO5)C4)c2n1 (centres undefined) |  |  |  | MIC [4]: 300 to 2000 µg/mL (≈ 618 to 4120 µM) |
| Cc1ccc2c(c1)C(=O)C(=O)N2CCN1CCN(NCc2ccccc2F)CC1 | 76 µM | 27.6% | 50 µM |  |
| O=C1COc2ccc(CNC3CCN(CC4CCc5c(F)ccc6ccc(=O)n4c56)CC3)nc2N1 (centres undefined) |  |  |  | MIC [4]: 300 to 2000 µg/mL (≈ 628 to 4190 µM) |
| O=C1C(=O)N(CCN2CCN(NCc3ccccc3OCc3ccccc3)CC2)c2ccc(Cl)cc21 | 13.8 µM | 26.8% | 3.8 µM |  |
| COc1ccc2c(c1)C(=O)C(=O)N2CCN1CCN(NCc2ccccc2OCc2ccccc2)CC1 | 69.7 µM | 16.3% | 36.5 µM |  |
| CCCCCCN1CCC(CCC(O)c2ccnc3ccc(OC)cc23)C(CC)C1 (centres undefined) |  |  |  | MIC [12]: 4000 µg/mL (≈ 9690 µM) |
| Cc1cc(O)c2c(c1)C(O)CCC2=O (centres undefined) |  |  |  | IC50 [1]: > 200 µM |
| COc1ccc2c(c1)C(=O)C(=O)N2CCN1CCN(NCc2ccccc2OC)CC1 | 81.2 µM | 15.4% | 48.6 µM |  |
| O=C1C(=O)N(CCN2CCN(NCc3ccc([N+](=O)[O-])o3)CC2)c2ccc(Cl)cc21 | 47.5 µM | 34.2% | 23.9 µM |  |
| Cc1cc(O)c2c(c1)C(=O)C(c1c(C)cc3c(c1O)C(=O)C=CC3=O)=CC2=O [DIOSPYRIN] |  |  |  | IC50 [6]: 4 µM; IC50 [1]: 15 µM; IC50 [7]: 8 µM |
| COc1ccccc1CNN1CCN(CCN2C(=O)C(=O)c3cc(Cl)ccc32)CC1 | 76 µM | 24% | 50 µM |  |
| Clc1cccc(-c2cnc3cc(-c4ccc5cn[nH]c5c4)cnc3n2)c1 |  |  |  | INH [5]: 7.5 µM |
| COc1ccccc1CNN1CCN(CCN2C(=O)C(=O)c3cc(C)ccc32)CC1 | 14.1 µM | 9.42% | 5 µM |  |
